# Laboratory results taken from BindingDB's records for patent US20240270732 (Chengdu Biobel Biotechnology Co., 2024).
# Target: T1, Receptor-interacting serine/threonine-protein kinase 1 (Homo sapiens, UniProt Q13546)
# T1 sequence (Q13546 whole entry): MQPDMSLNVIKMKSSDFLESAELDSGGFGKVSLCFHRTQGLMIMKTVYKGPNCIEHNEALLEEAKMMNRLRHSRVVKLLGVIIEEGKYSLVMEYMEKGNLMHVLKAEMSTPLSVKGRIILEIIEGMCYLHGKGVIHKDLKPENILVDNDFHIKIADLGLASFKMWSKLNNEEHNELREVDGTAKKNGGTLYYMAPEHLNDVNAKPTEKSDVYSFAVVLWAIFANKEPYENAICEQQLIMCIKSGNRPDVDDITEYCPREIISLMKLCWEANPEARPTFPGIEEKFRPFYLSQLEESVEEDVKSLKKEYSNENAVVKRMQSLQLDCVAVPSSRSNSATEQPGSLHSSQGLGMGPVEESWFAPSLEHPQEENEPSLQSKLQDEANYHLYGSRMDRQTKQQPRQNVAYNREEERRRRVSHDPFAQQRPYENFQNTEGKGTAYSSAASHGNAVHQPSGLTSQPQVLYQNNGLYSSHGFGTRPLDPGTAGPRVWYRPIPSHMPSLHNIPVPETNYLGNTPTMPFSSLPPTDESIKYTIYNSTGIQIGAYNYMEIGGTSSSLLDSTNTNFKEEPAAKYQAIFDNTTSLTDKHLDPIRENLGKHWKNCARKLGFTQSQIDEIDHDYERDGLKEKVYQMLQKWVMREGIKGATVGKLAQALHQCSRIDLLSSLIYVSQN
# Assay: Inhibitory Activity Assay
# Procedure: The compound of the present invention and the control compound were dissolved in the assay buffer (50 mM Hepes pH 7.5, 50 mM NaCl, 30 mM MgCl2, 1 mM DTT, 0.02% CHAPS, 0.5 mg/mL BSA), and diluted in a ratio of 1:1.5 using a 22-point titration (high concentration 2 μM), and then added to a 384-well plate. […] After completion of the reaction, 5 μL of ADP-Glo reagent containing 0.02% CHAPS was added to each well and incubated at room temperature for 1 h to terminate the kinase reaction and use up all remaining ATP. Then, 5 μL of ADP-Glo detection solution containing 0.02% CHAPS was added to each well and incubated at room temperature for 30 min to measure the emittance intensity.
row,Structure (SMILES),IC50 [nM]
1,"C#CCN1CCN(CC#Cc2ccc3c(c2)N(C)C(=O)[C@@H](NC(=O)c2cn(Cc4ccccc4)cn2)[C@H](C)O3)CC1 [US20240270732, Compound I-63]",59.2
2,"C[C@H]1Oc2ccc(C#CCN3CCN(CC#CC#CCN4CCN(CC#Cc5ccc6c(c5)N(C)C(=O)[C@@H](NC(=O)c5n[nH]c(Cc7ccccc7)n5)[C@@H](C)O6)CC4)CC3)cc2N(C)C(=O)[C@H]1NC(=O)c1n[nH]c(Cc2ccccc2)n1 [US20240270732, Compound I-91]",4.36
3,"C#CCN1CCN(CC#Cc2ccc3c(c2)N(C)C(=O)[C@@H](NC(=O)c2cnn(Cc4ccccc4)c2)[C@@H](C)O3)CC1 [US20240270732, Compound I-47]",13.6
4,"C[C@H]1Oc2ccc(C#Cc3ccncc3)cc2N(C)C(=O)[C@H]1NC(=O)c1ncn(Cc2ccccc2)n1 [US20240270732, Compound I-110]",4.73
5,"C[C@H]1Oc2ccc(C#CCN3CCN(CC#Cc4ccc5c(c4)N(C)C(=O)[C@@H](NC(=O)c4n[nH]c(Cc6cccc(O)c6)n4)[C@@H](C)O5)CC3)cc2N(C)C(=O)[C@H]1NC(=O)c1n[nH]c(Cc2cccc(O)c2)n1 [US20240270732, Compound I-70]",18.2
6,"C[C@H]1Oc2ccc(C#CCN3CCN(CC#Cc4ccc5c(c4)N(C)C(=O)[C@@H](NC(=O)c4nnc(Cc6ccccc6)o4)[C@@H](C)O5)CC3)cc2N(C)C(=O)[C@H]1NC(=O)c1nnc(Cc2ccccc2)o1 [US20240270732, Compound I-50]",14.3
7,"C[C@H]1Oc2ccc(C#CCN3CCN(CC#Cc4ccc5c(c4)N(C)C(=O)[C@@H](NC(=O)c4nnn(Cc6ccccc6)n4)[C@@H](C)O5)CC3)cc2N(C)C(=O)[C@H]1NC(=O)c1n[nH]c(Cc2ccccc2)n1 [US20240270732, Compound I-6]",11.2
8,"C#CCN1CCN(CC#Cc2ccc3c(c2)N(C)C(=O)[C@@H](NC(=O)c2cn(Cc4ccccc4)cn2)[C@@H](C)O3)CC1 [US20240270732, Compound I-59]",10.2
9,"C#CCOCCOCCOCCOCCOCC#Cc1ccc2c(c1)N(C)C(=O)[C@@H](NC(=O)c1n[nH]c(Cc3ccccc3)n1)CO2 [US20240270732, Compound I-82-2]",7.15
10,"C[C@H]1Oc2ccc(C#CCOCCOCCOCCOCCOCC#Cc3ccc4c(c3)N(C)C(=O)[C@@H](NC(=O)c3ncn(Cc5ccccc5)n3)CO4)cc2N(C)C(=O)[C@H]1NC(=O)c1ncn(Cc2ccccc2)n1 [US20240270732, Compound I-86]",7.91
11,"C[C@H]1Oc2ccc(C#Cc3cccc(N)c3)cc2N(C)C(=O)[C@H]1NC(=O)c1ncn(Cc2ccccc2)n1 [US20240270732, Compound I-118]",13.8
12,"C#CCN1CCN(CC#Cc2ccc3c(c2)N(C)C(=O)[C@@H](NC(=O)c2nnc(Cc4ccccc4)o2)[C@@H](C)O3)CC1 [US20240270732, Compound I-49]",16.2
13,"C#CCN1CCN(CC#Cc2ccc3c(c2)N(C)C(=O)[C@@H](NC(=O)c2nnn(Cc4ccccc4)n2)CO3)CC1 [US20240270732, Compound I-57]",8.09
14,"C[C@H]1Oc2ccc(C#CCN3CCN(CC#Cc4ccc5c(c4)N(C)C(=O)[C@@H](NC(=O)c4ncn(Cc6cccnc6)n4)[C@@H](C)O5)CC3)cc2N(C)C(=O)[C@H]1NC(=O)c1ncn(Cc2cccnc2)n1 [US20240270732, Compound I-74]",17.5
15,"C#CCN1CCN(CC#Cc2ccc3c(c2)N(C)C(=O)[C@@H](NC(=O)c2ncc(Cc4ccccc4)o2)[C@@H](C)O3)CC1 [US20240270732, Compound I-43]",12.7
16,"C[C@H]1Oc2ccc(C#CCN3CCN(CC#Cc4ccc5c(c4)N(C)C(=O)[C@@H](NC(=O)c4nnn(Cc6ccccc6)n4)[C@@H](C)O5)CC3)cc2N(C)C(=O)[C@H]1NC(=O)c1ncn(Cc2ccccc2)n1 [US20240270732, Compound I-25]",3.39
17,"C[C@H]1Oc2ccc(C#CCN3CCN(CC#Cc4ccc5c(c4)N(C)C(=O)[C@@H](NC(=O)c4ncn(Cc6ccccc6)n4)[C@@H](C)O5)CC3)cc2N(C)C(=O)[C@H]1NC(=O)c1ncn(Cc2ccccc2)n1 [US20240270732, Compound I-23]",4.66
